Like-named read-outs stand apart in the source and are kept apart here.
Experiments:
Experiment in all cases: Cell viability assay (Hoechst 33342/PI, ImageXpress)
Format in all cases: cell-based
MDA-MB-321 cell line = test system: MDA-MB-321 cell line
Description: (§1) The purity of each oxysterol was determined to be 98% by GS/MS. For all experiments, a stock solution was prepared at a concentration of 1000 μM in absolute ethanol. The concentrations used in the experiments were in the range of those described to induce cell death on several cell lines. For the experiments, cells were plated at a density of 1.5×10^3 cells/[…] in triplicate in 96-well Black Flat Bottom Polystyrene Microplates (Corning, Mass.) and incubated in CO2 atmosphere. […] At the end of this experimental period, several parameters were determined in each of the three samples, as described hereafter.
(§2) After 24 h cells were incubated with Hoechst 33342 (0.1 μg/mL) and 0.5 μl propidium iodide (PI) for 15 min. ImageXpress Micro high content screening system (Molecular Devices, Sunnyvale, Calif.) was used to determine the number of live and death cells. Nine sites per well and three wells per treatment were acquired. Cell Scoring MetaXpress software was used to analyze the number of cells and the viability. For IC50 calculations, survival data were evaluated by variable slope curve-fitting with GraphPad Prism.

B16-F10 cell line = conditions: Mus musculus
Description: as §1, §2

HUV-EC = conditions: Homo sapiens, HUVEC, Table 4, time and unit inferred
Description: (§3) The purity of each oxysterol was determined to be 98% by GS/MS. For all experiments, a stock solution was prepared at a concentration of 1000 μM in absolute ethanol. The concentrations used in the experiments were in the range of those described to induce cell death on several cell lines. For the experiments, cells were plated at a density of 1.5×10^3 cells/[…] in triplicate in 96-well Black Flat Bottom Polystyrene Microplates (Corning, Mass.) and incubated in CO2 atmosphere. Several concentrations of each oxysterol (0 to 100 μM, 200 μL final volume) were added to the media, followed by incubation for 24 h. At the end of this experimental period, several parameters were determined in each of the three samples, as described hereafter. After 24 h cells were incubated with Hoechst 33342 (0.1 μg/mL) and 0.5 μl propidium iodide (PI) for 15 min. ImageXpress Micro high content screening system (Molecular Devices, Sunnyvale, Calif.) was used to determine the number of live and death cells. Nine sites per well and three wells per treatment were acquired. Cell Scoring MetaXpress software was used to analyze the number of cells and the viability. For IC50 calculations, survival data were evaluated by variable slope curve-fitting with GraphPad Prism.

LL 24 = conditions: LL24, Table 4, time and unit inferred
Description: as §3

Molt-4 = conditions: Molt-4, human acute lymphoblastic leukemia; Table 2
Description: (§4) The purity of each oxysterol was determined to be 98% by GS/MS. For all experiments, a stock solution was prepared at a concentration of 1000 μM in absolute ethanol. The concentrations used in the experiments were in the range of those described to induce cell death on several cell lines. For the experiments, cells were plated at a density of 1.5×10^3 cells/[…] in triplicate in 96-well Black Flat Bottom Polystyrene Microplates (Corning, Mass.) and incubated in CO2 atmosphere. Several concentrations of each oxysterol (0 to 100 μM, 200 μL final volume) were added to the media, followed by incubation for 24 h. At the end of this experimental period, several parameters were determined in each of the three samples, as described hereafter.
as §2

A172 = conditions: A 172; A172, human brain glioblastoma; Table 2
Description: as §4, §2

PC-3 = conditions: PC-3, human prostate grade IV adenocarcinoma; Table 2
Description: as §4, §2

MRC-5 = conditions: MRC5; MRC-5, human lung normal; Table 2
Description: as §4, §2

HeLa = conditions: human cervix adenocarcinoma, Table 2
Description: as §4, §2

T98G = conditions: human brain glioblastoma, Table 2
Description: as §4, §2

Raji = conditions: human Burkitt's lymphoblast, Table 2
Description: as §4, §2

HepG-2 = conditions: HepG2; HepG-2, human hepatocellular carcinoma; Table 2
Description: as §4, §2

U87-MG = conditions: U-87 MG, human glioblastoma astrocytoma, Table 2
Description: as §4, §2

Jurkat = conditions: human acute T cell leukemia, Table 2
Description: as §4, §2

[1] = MDA-MB-321, Table 4, time and unit inferred, read-out: IC50 MDA-MB-321
[2] = B16 F10, Table 4, time and unit inferred, read-out: IC50 B16 F10
[3] = MDA-MB-321, 48 h, Table 3, read-out: MDA-MB-321 cell line IC50 (uM) 48 h
[4] = MDA-MB-321, 72 h, Table 3, read-out: MDA-MB-321 cell line IC50 (uM) 72 h
[5] = MDA-MB-321, 24 h, Table 3, read-out: MDA-MB-321 cell line IC50 (uM) 24 h
[6] = B16-F10, 24 h, Table 3, read-out: B16-F10 cell line IC50 (uM) 24 h
[7] = B16-F10, 48 h, Table 3, read-out: B16-F10 cell line IC50 (uM) 48 h
[8] = B16-F10, 72 h, Table 3, read-out: B16-F10 cell line IC50 (uM) 72 h

| SMILES | IC50 (MDA-MB-321 cell line; [1]) | IC50 (B16-F10 cell line; [2]) | IC50 (HUV-EC) | IC50 (LL 24) | IC50 (MDA-MB-321 cell line; [3]) | IC50 (MDA-MB-321 cell line; [4]) | IC50 (MDA-MB-321 cell line; [5]) | IC50 (B16-F10 cell line; [6]) | IC50 (B16-F10 cell line; [7]) | IC50 (B16-F10 cell line; [8]) | IC50 (Molt-4) | IC50 (A172) | IC50 (PC-3) | IC50 (MRC-5) | IC50 (HeLa) | IC50 (T98G) | IC50 (Raji) | IC50 (HepG-2) | IC50 (U87-MG) | IC50 (Jurkat) |
| --- | --- | --- | --- | --- | --- | --- | --- | --- | --- | --- | --- | --- | --- | --- | --- | --- | --- | --- | --- | --- |
| CC(C)CCC[C@@H](C)[C@H]1CC[C@H]2[C@@H]3C(=O)[C@@H]4O[C@@]45C[C@@H](O)CC[C@]5(C)[C@H]3CC[C@]12C [Ox-8, (3α,5β,6α)-3-OH-5,6-epoxycholestan-7-one] | 40 µM | 37 µM | 35.2 µM | 46.5 µM | – | – | – | – | – | – | – | – | – | – | – | – | – | – | – | – |
| CC(=O)O[C@H]1CC[C@@]2(C)C(=CC(=O)[C@H]3[C@@H]4CC[C@H]([C@H](C)CCCC(C)C)[C@@]4(C)CC[C@@H]32)C1 [Ox-6, 7-oxocholest-5-en-3-β-yl acetate] | – | – | – | – | 8560 µM | 829 µM | – | – | – | – | – | – | – | – | – | – | – | – | – | – |
| CC(C)CCCC(C)C1CCC2C3CC(O)C4CC(O)CC[C@]4(C)C3CC[C@]12C (stereo in doubt) [Ox-4, (3α,5β,6α)-cholestane-3,6-diol] | 59 µM | 42.4 µM | – | 28.3 µM | 39.7 µM | 35.3 µM | 66.6 µM | 58.3 µM | 52.9 µM | 82.6 µM | – | – | – | – | – | – | – | – | – | – |
| CC(C)CCCC(C)C1CCC2C3CC(O)C4(O)CC(O)CC[C@]4(C)C3CC[C@]12C (stereo in doubt) [Ox-2, Cholestane-3α-5β-6α-triol] | 37.5 µM | 41.3 µM | 73.6 µM | 38.4 µM | 21.1 µM | 25.2 µM | 7.9 µM | 18.1 µM | 21.4 µM | 15.4 µM | 12.3 µM | 23.6 µM | 21 µM | 47.5 µM | 19.9 µM | 27.5 µM | 39 µM | 19 µM | 29.8 µM | 46.6 µM |
| CC(=O)O[C@H]1CC[C@@]2(C)C(=CC[C@H]3[C@@H]4CC[C@H]([C@H](C)CCCC(C)C)[C@@]4(C)CC[C@@H]32)C1 [Ox-5, Cholesteryl acetate] | – | – | – | – | – | 89.8 µM | – | – | – | – | – | – | – | – | – | – | – | – | – | – |
| CC(C)CCC[C@H](C)C1CCC2C3C(=O)C=C4C=CCC[C@]4(C)C3CC[C@@]21C (stereo partly shown) [Ox-3, 3,5-cholestan-7-one] | – | 118 µM | – | – | – | – | – | – | 377 µM | 52.9 µM | – | – | – | – | – | – | – | – | – | – |
| CC(C)CCC[C@@H](C)[C@H]1CC[C@H]2[C@@H]3C(=O)C=C4C[C@@H](O)CC[C@]4(C)[C@H]3CC[C@]12C [Ox-1, 7-Ketocholesterol] | 37.6 µM | 35.6 µM | 39.4 µM | 49.5 µM | 50.4 µM | 48.1 µM | 54.4 µM | 19.9 µM | 21.7 µM | 29.6 µM | 38 µM | 15.6 µM | 19.2 µM | 78.6 µM | 33.2 µM | – | 63.3 µM | 42.5 µM | 55.6 µM | 55.8 µM |

— US11332494B2, “Nanoemulsions and methods for cancer therapy” (Fernando Thome Kreutz, priority 2016, dated 2022)
